Experimental data as given in US7829568B2, “Substituted 5,6,7,8-tetrahydroimidazo[1,2-a]pyridin-2-ylamine compounds and their use for producing drugs” (Gruenenthal GmbH, priority 2005, dated 2010).

The molecules below were run on batrachotoxin (BTX) binding site of the sodium channel (assay: Affinity to the batrachotoxin (BTX) binding site of the sodium channel). Details: [3H]-batrachotoxinin A20 α-benzoate 10 nM; synaptosomes from rat cerebral cortex; test concentration not given.
Design: species or system rat

Compared with CN(C(=O)c1cccc2ccccc12)c1nc2n(c1C(=O)NC(c1ccccc1)c1ccc(Cl)cc1)CCCC2 (centres unmarked) [Example 139, 2-[methyl-(naphthalene-1-carbonyl)-amino]-5,6,7,8-tetrahydro-imidazo[1,2-a]pyridine-3-carboxylic acid [(4-chlor-phenyl)-phenyl-methyl]-amide], CN(C(=O)c1cccc2ccccc12)c1nc2n(c1C(=O)NCC(c1ccccc1)c1ccccc1)CCCC2 [Example 46, 2-[methyl-(naphthalene-1-carbonyl)-amino]-5,6,7,8-tetrahydro-imidazo[1,2-a]pyridine-3-carboxylic acid (2,2-diphenyl-ethyl)-amide] is lower in “BTX inhibition (rat) (% inhibition)” value: 73% for the first, 67% for the second.

First: Cc1ccc(CCNC(=O)c2c(N(C)C(=O)c3cccc4ccccc34)nc3n2CCCC3)cc1 [Example 49, 2-[methyl-(naphthalene-1-carbonyl)-amino]-5,6,7,8-tetrahydro-imidazo[1,2-a]pyridine-3-carboxylic acid (2-p-tolyl-ethyl)-amide]
Second: CN(C(=O)c1cccc2ccccc12)c1nc2n(c1C(=O)NCCc1ccc(Oc3ccccc3)cc1)CCCC2 [Example 68, 2-[methyl-(naphthalene-1-carbonyl)-amino]-5,6,7,8-tetrahydro-imidazo[1,2-a]pyridine-3-carboxylic acid [2-(4-phenoxy-phenyl)-ethyl]-amide]
The “BTX inhibition (rat) (% inhibition)” value of the first is lower: 37% for the first, 87% for the second.

First: CN(C(=O)c1ccccc1)c1nc2n(c1C(=O)NCc1ccc(Cl)cc1)CCCC2 [Example 157, 2-(benzoyl-methyl-amino)-5,6,7,8-tetrahydro-imidazo[1,2-a]pyridine-3-carboxylic acid 4-chloro-benzylamide]
Second: CC(CNC(=O)c1c(N(C)C(=O)c2cccc3ccccc23)nc2n1CCCC2)c1ccc(Cl)cc1 (centres unmarked) [Example 163, 2-[methyl-(naphthalene-1-carbonyl)-amino]-5,6,7,8-tetrahydro-imidazo[1,2-a]pyridine-3-carboxylic acid [2-(4-chlor-phenyl)-propyl]-amide]
The “BTX inhibition (rat) (% inhibition)” value of the first is higher: 43% for the first, 40% for the second.

Compared with CN(C(=O)Cc1ccccc1)c1nc2n(c1C(=O)N(C)C1CCN(Cc3ccc(-c4ccccc4)cc3)C1)CCCC2 (centres unmarked) [Example 168, 2-(methyl-phenylacetyl-amino)-5,6,7,8-tetrahydro-imidazo[1,2-a]pyridine-3-carboxylic acid (1-biphenyl-4-ylmethyl-pyrrolidin-3-yl)-methyl-amide], CN(C(=O)c1cccc2ccccc12)c1nc2n(c1C(=O)N1CCN(CCc3ccccc3)CC1)CCCC2 [Example 174, naphthalene-1-carboxylic acid methyl-[3-(4-phenethyl-piperazine-1-carbonyl)-5,6,7,8-tetrahydro-imidazo[1,2-a]pyridin-2-yl]-amide] is lower in “BTX inhibition (rat) (% inhibition)” value: 92% for the first, 47% for the second.

Compared with CCCCN(C(=O)c1cccc(Cl)c1)c1nc2n(c1C(=O)NCc1ccccc1OCC)CCCC2 [Example 43, 2-[butyl-(3-chloro-benzoyl)-amino]-5,6,7,8-tetrahydro-imidazo[1,2-a]pyridine-3-carboxylic acid 2-ethoxy-benzylamide], CCCCN(C(=O)c1cccc(Cl)c1)c1nc2n(c1C(=O)NCc1ccccc1C(F)(F)F)CCCC2 [Example 51, 2-[butyl-(3-chloro-benzoyl)-amino]-5,6,7,8-tetrahydro-imidazo[1,2-a]pyridine-3-carboxylic acid 2-trifluoromethyl-benzylamide] is lower in “BTX inhibition (rat) (% inhibition)” value: 40% for the first, 35% for the second.

Going from CN(C(=O)c1cccc(Cl)c1)c1nc2n(c1C(=O)N1CC=C(c3ccc(F)cc3)CC1)CCCC2 [Example 61, 3-chloro-N-{3-[4-(4-fluorophenyl)-3,6-dihydro-2H-pyridine-1-carbonyl]-5,6,7,8-tetrahydro-imidazo[1,2-a]pyridin-2-yl}-N-methyl-benzamide] to CN(C(=O)c1cccc(Cl)c1)c1nc2n(c1C(=O)N1CCN(c3cccc(C(F)(F)F)c3)CC1)CCCC2 [Example 14, 3-chloro-N-methyl-N-{3-[4-(3-trifluoromethyl-phenyl)-piperazine-1-carbonyl]-5,6,7,8-tetrahydro-imidazo[1,2-a]pyridin-2-yl}-benzamide], the “BTX inhibition (rat) (% inhibition)” value rises from 38% to 41%.

Compared with CCCCN(C(=O)c1cccc(Cl)c1)c1nc2n(c1C(=O)NC1CCN(Cc3cc(OC)c(OC)cc3Br)C1)CCCC2 (centres unmarked) [Example 172, 2-[butyl-(3-chloro-benzoyl)-amino]-5,6,7,8-tetrahydro-imidazo[1,2-a]pyridine-3-carboxylic acid [1-(2-bromo-4,5-dimethoxy-benzyl)-pyrrolidin-3-yl]-amide], CN(C(=O)c1cccc(Cl)c1)c1nc2n(c1C(=O)NC1CCN(Cc3c(Cl)cccc3Cl)C1)CCCC2 (centres unmarked) [Example 83, 2-[(3-chloro-benzoyl)-methyl-amino]-5,6,7,8-tetrahydro-imidazo[1,2-a]pyridine-3-carboxylic acid [1-(2,6-dichlor-benzyl)-pyrrolidin-3-yl]-amide] is lower in “BTX inhibition (rat) (% inhibition)” value: 96% for the first, 80% for the second.

Going from CN(C(=O)c1ccccc1)c1nc2n(c1C(=O)Nc1ccc3c(c1)OCO3)CCCC2 [Example 85, 2-(benzoyl-methyl-amino)-5,6,7,8-tetrahydro-imidazo[1,2-a]pyridine-3-carboxylic acid benzo[1,3]dioxol-5-ylamide] to CN(C(=O)c1cccc(Cl)c1)c1nc2n(c1C(=O)Nc1ccc(OCc3ccccc3)cc1)CCCC2 [Example 129, 2-[(3-chloro-benzoyl)-methyl-amino]-5,6,7,8-tetrahydro-imidazo[1,2-a]pyridine-3-carboxylic acid (4-benzyloxy-phenyl)-amide], the “BTX inhibition (rat) (% inhibition)” value rises from 30% to 76%.

Compared with CCCCN(C(=O)c1cccc(Cl)c1)c1nc2n(c1C(=O)NCC1COc3ccccc3O1)CCCC2 (centres unmarked) [Example 77, 2-[butyl-(3-chloro-benzoyl)-amino]-5,6,7,8-tetrahydro-imidazo[1,2-a]pyridine-3-carboxylic acid (2,3-dihydro-benzo[1,4]dioxin-2-ylmethyl)-amide], CCCCN(C(=O)c1cccc(Cl)c1)c1nc2n(c1C(=O)NCc1cccc(C)c1)CCCC2 [Example 113, 2-[butyl-(3-chloro-benzoyl)-amino]-5,6,7,8-tetrahydro-imidazo[1,2-a]pyridine-3-carboxylic acid 3-methyl-benzylamide] is lower in “BTX inhibition (rat) (% inhibition)” value: 56% for the first, 31% for the second.

CCCCN(C(=O)c1cccc(Cl)c1)c1nc2n(c1C(=O)N1CCN(c3cccc(C(F)(F)F)c3)CC1)CCCC2 [Example 79, N-butyl-3-chloro-N-{3-[4-(3-trifluoromethyl-phenyl)-piperazine-1-carbonyl]-5,6,7,8-tetrahydro-imidazo[1,2-a]pyridin-2-yl}-benzamide] and CCCCN(C(=O)c1ccc(F)c(F)c1)c1nc2n(c1C(=O)N1CCN(c3cc(Cl)ccc3C)CC1)CCCC2 [Example 119, N-butyl-N-{3-[4-(5-chloro-2-methyl-phenyl)-piperazine-1-carbonyl]-5,6,7,8-tetrahydro-imidazo[1,2-a]pyridin-2-yl}-3,4-difluoro-benzamide] are the same in “BTX inhibition (rat) (% inhibition)” value: 83% for the first, 83% for the second.

Going from CC1C(NC(=O)c2c(N(C)C(=O)c3cccc(Cl)c3)nc3n2CCCC3)CC2CC1C2(C)C (centres unmarked) [Example 27, 2-[(3-chloro-benzoyl)-methyl-amino]-5,6,7,8-tetrahydro-imidazo[1,2-a]pyridine-3-carboxylic acid (2,6,6-trimethyl-bicyclo[3.1.1]hept-3-yl)-amide] to CN(C(=O)c1cccc2ccccc12)c1nc2n(c1C(=O)NC1CCCCC1)CCCC2 [Example 154, 2-[methyl-(naphthalene-1-carbonyl)-amino]-5,6,7,8-tetrahydro-imidazo[1,2-a]pyridine-3-carboxylic acid cyclohexylamide], the “BTX inhibition (rat) (% inhibition)” value rises from 35% to 92%.

First: CN(C(=O)c1cccc2ccccc12)c1nc2n(c1C(=O)N1CCN(c3ccccc3Cl)CC1)CCCC2 [Example 148, naphthalene-1-carboxylic acid {3-[4-(2-chloro-phenyl)-piperazine-1-carbonyl]-5,6,7,8-tetrahydro-imidazo[1,2-a]pyridin-2-yl}-methyl-amide]
Second: CCc1ccccc1N1CCN(C(=O)c2c(N(C)C(=O)c3ccccc3)nc3n2CCCC3)CC1 [Example 3, N-{3-[4-(2-ethyl-phenyl)-piperazine-1-carbonyl]-5,6,7,8-tetrahydro-imidazo[1,2-a]pyridin-2-yl}-N-methyl-benzamide]
The “BTX inhibition (rat) (% inhibition)” value of the first is higher: 35% for the first, 34% for the second.

Going from CC(C)CC(NC(=O)c1c(N(C)C(=O)c2cccc3ccccc23)nc2n1CCCC2)C(=O)OCc1ccccc1 (centres unmarked) [Example 57, 4-methyl-2-({2-[methyl-(naphthalene-1-carbonyl)-amino]-5,6,7,8-tetrahydro-imidazo[1,2-a]pyridine-3-carbonyl}-amino)-pentanoic acid benzyl ester] to CN(C(=O)c1cccc2ccccc12)c1nc2n(c1C(=O)NCc1ccccc1OC(F)(F)F)CCCC2 [Example 99, 2-[methyl-(naphthalene-1-carbonyl)-amino]-5,6,7,8-tetrahydro-imidazo[1,2-a]pyridine-3-carboxylic acid 2-trifluoromethoxy-benzylamide], the “BTX inhibition (rat) (% inhibition)” value rises from 31% to 33%.

First: CCCCN(C(=O)c1ccc(F)c(F)c1)c1nc2n(c1C(=O)NCc1ccccc1OC(F)(F)F)CCCC2 [Example 88, 2-[butyl-(3,4-difluoro-benzoyl)-amino]-5,6,7,8-tetrahydro-imidazo[1,2-a]pyridine-3-carboxylic acid 2-trifluoromethoxy-benzylamide]
Second: CCOc1ccc(Br)cc1CN1CCN(C(=O)c2c(N(C)C(=O)Cc3ccccc3)nc3n2CCCC3)CC1 [Example 130, N-{3-[4-(5-bromo-2-ethoxy-benzyl)-piperazine-1-carbonyl]-5,6,7,8-tetrahydro-imidazo[1,2-a]pyridin-2-yl}-N-methyl-2-phenyl-acetamide]
The “BTX inhibition (rat) (% inhibition)” value of the first is lower: 31% for the first, 67% for the second.

For COc1cc(OC)c(CN2CCN(C(=O)c3c(N(C)C(=O)c4cccc(Cl)c4)nc4n3CCCC4)CC2)c(OC)c1 [Example 146, 3-chloro-N-methyl-N-{3-[4-(2,4,6-trimethoxy-benzyl)-piperazine-1-carbonyl]-5,6,7,8-tetrahydro-imidazo[1,2-a]pyridin-2-yl}-benzamide], the “BTX inhibition (rat) (% inhibition)” value was 70%.
